Laboratory results: patent publication US9404080B2, “Human taste cells capable of continuous proliferation” (B.R.A.I.N. BIOTECHNOLOGY RESEARCH AND INFORMATION NETWORK AG, priority 2012, dated 2016)
“Also recorded” adds a separate entry of the source.

Key:
[1] = tested on: human taste cells BR-HTC8; assay: FLIPR fluorescent membrane potential (FMP) imaging assay in BR-HTC8; assay type: cell-based; conditions: for change of cellular membrane potential (FLIPR FMP dye fluorescence) on addition of the test molecule: BR-HTC8, increasing concentrations in KH-buffer; for FMP assay BR-HTC8: dose-dependent decrease in cellular membrane potential on stimulation with the cognate bitter molecule of the TAS2R; on FMP assay BR-HTC8: key: + indicates that the analysis was successful and that the mRNA was detected by RT-PCR or that stimulation of human taste cells with the respective taste molecule resulted in a dose-dependent increase in intracellular calcium or decrease in cellular membrane potential
Method: This cell depolarization was measured by using voltage-sensitive dyes including FLIPR fluorescent membrane potential (FMP) dye (Molecular Devices R8123). Before the assay, cells were maintained in HTC medium for at least 48 hours as described above in Example 1. Cells were then trypsinized with accutase (e.g. PAA, L11-007) or TrypLE (e.g. Gibco, 12563) and seeded into poly-D-lysine coated 96-well assay plates (Corning) at a density of 15,000 cells/well in […].
After 24 hours, medium was removed and the cells are washed once with 100 μl KH buffer (10 mM HEPES pH7.4 containing 118 mM NaCl, 4.7 mM KCl, 4.2 mM NaHCO3, 1.2 mM KH2PO4, 1.2 mM MgSO4, 1.3 mM CaCl2) and then stained with 200 μl KH buffer containing FLIPR FMP dye according instructions of the manufacturer […] and incubation for 2 hours at 37° C. The plates were then transferred into a fluorescence microplate reader to monitor changes in membrane potential-dependent fluorescence (excitation 530 nm, emission 565 nm) after the addition of 50 μl KH-buffer supplemented with the test molecule under investigation. The test molecule was added 16 seconds after starting the scan and baseline recording, mixed twice, and then recording continued for additional 74 seconds. Data points of a total of 35 reads were collected.
Data analysis/Data recording—Changes of the membrane potential was measured as the change of peak fluorescence (ΔF) over the baseline level (F). Data were expressed as the mean S.E. of the ΔF/F value of replicated independent samples. Data analysis was done with software provided by the manufacturer of the microplate reader (Molecular Devices).
(§1) To test, whether stimulation of human taste cells with taste molecules leads to changes in cellular membrane potential the FLIPR fluorescent membrane potential assay was performed as described above. Non-taste cells including HEK293 cells and non-lingual, proliferating primary cells isolated from the oral cavity served as a control and were treated equally throughout the procedure. Changes in membrane potential were recorded on a Molecular Devices Fluorescence microplate reader. Measurement was started by addition of increasing concentrations of the taste molecules in KH-buffer to the cells. KH-buffer served as negative control and KH-buffer containing 4 μM FCCP (e.g. Sigma, C2920) served as a positive control. […] Data were obtained from several independent experiments and performed in triplicates.
as §1, with “This cell depolarization can be measured by using voltage-sensitive dyes including FLIPR fluorescent membrane potential (FMP) dye (Molecular Devices R8123) as described above in Example 6. To” for “To”, “oxytocin” for “taste molecules”, “oxytocin” for “the taste molecules”

[2] = tested on: human taste cells BR-HTC8; assay: Fluo-4 fluorescent calcium imaging assay in BR-HTC8; assay type: cell-based; conditions: for change of Fluo4-fluorescence / intracellular calcium on addition of the test molecule: BR-HTC8, increasing concentrations in KH-buffer with Ca2+; for Fluo-4 assay BR-HTC8: dose-dependent increase in intracellular calcium on stimulation with the cognate bitter molecule of the TAS2R named in the row; on Fluo-4 assay BR-HTC8: key: + indicates that the analysis was successful and that the mRNA was detected by RT-PCR or that stimulation of human taste cells with the respective taste molecule resulted in a dose-dependent increase in intracellular calcium or decrease in cellular membrane potential
Method: Before the assay, cells are maintained in HTC medium for at least 48 hours as described in Example 1. Cells are then trypsinized with accutase (e.g. PAA, L11-007) or TrypLE (e.g. Gibco, 12563) and seeded into poly-D-lysine coated 96-well assay plates (e.g. Corning) at a density of 15,000 cells/well in 100 μl HTC medium.
After 24 hours, the cells (still in 100 μl medium) are stained by addition of 100 μl of Fluo-4 staining solution, which consists of KH buffer (10 mM HEPES pH7.4 containing 118 mM NaCl, 4.7 mM KCl, 4.2 mM NaHCO3, 1.2 mM KH2PO4, 1.2 mM MgSO4, 1.3 mM CaCl2) containing 4 μM Fluo-4 (Molecular Probes) and incubation for 1 hour at 37° C. Final Fluo-4 concentration in the staining solution/medium mixture is 2 μM. Staining solution is then replaced by 80 μl KH-buffer per well and plates are transferred into a fluorescence microplate reader to monitor changes in Ca^2+-dependent fluorescence (excitation 488 nm, emission 530 nm) after the addition of 20 μl KH-buffer supplemented with the test molecule under investigation. The test molecule was added 16 seconds after starting the scan and baseline recording, mixed twice, and then recording continued for additional 44 seconds. Data points of a total of 18 reads were collected. Data analysis/Data recording—Calcium mobilization was measured as the change of peak fluorescence (ΔF) over the baseline level (F). Data were expressed as the mean S.E. of the ΔF/F value of replicated independent samples. Data analysis was done with software provided by the manufacturer of the microplate reader (e.g. Molecular Devices).
(§2) To test, whether stimulation of human taste cells with these taste molecules leads to changes in intracellular calcium the Fluo-4 fluorescent calcium imaging assay was performed as described above. Non-taste cells including HEK293 cells and non-lingual, proliferating primary cells isolated from the oral cavity served as a control and were treated equally throughout the procedure. Changes in Ca^2+-dependent Fluo-4 fluorescence were recorded on a Molecular Devices Fluorescence microplate reader. Measurement was started by addition of increasing concentrations of the taste molecules in KH-buffer to the cells. KH-buffer served as negative control and KH-buffer containing 1 μM ionomycin served as a positive control. […] Calcium signals for each test molecule are depicted as Relative Fluorescence Units (RFU), which means that calcium mobilization in response to taste molecules was calculated dF/F0, with dF is (peak fluorescence F1−baseline fluorescence F0). […] Data were obtained from several independent experiments and performed in triplicates.
In order to perform to the Fluo-4 fluorescent calcium imaging experiment in the absence of extracellular Ca^2+ the procedure was conducted as described above, however, the KH-buffer was prepared without addition of Ca^2+. Measurement was started by addition of increasing concentrations of the taste molecules in KH-buffer without Ca^2+ to the cells. KH-buffer without Ca^2+ served as negative control and KH-buffer without Ca^2+ containing 1 μM ionomycin served as a positive control.
To test, whether stimulation of human taste cells with oxytocin leads to changes in intracellular calcium the Fluo-4 fluorescent calcium imaging assay was performed as described above in Example 5. Briefly, the human taste cells were seeded in 96-well plates and stained with 2 μM of the calcium-sensitive fluorescence dye Fluo4 in HTC/KH buffer medium for one hour at 37° C. with subsequent replacement of the staining solution with KH-buffer. Non-taste cells including HEK293 cells and non-lingual, proliferating primary cells isolated from the oral cavity served as a control and were treated equally throughout the procedure. Changes in Ca^2+-dependent Fluo-4 fluorescence were recorded on a Molecular Devices Fluorescence microplate reader.

[3] = tested on: Non-taste cells including HEK293 cells, Cal33 cells, and non-lingual, proliferating primary cells isolated from the oral cavity; assay: Fluo-4 fluorescent calcium imaging assay in non-taste control cells; assay type: cell-based, human
Method: Briefly, human taste cells were seeded in 96-well plates and stained with Fluo4-AM. Non-taste cells including HEK293 cells, Cal33 cells, and non-lingual, proliferating primary cells isolated from the oral cavity served as a control. Changes in Ca^2+-dependent Fluo-4 fluorescence were recorded on a Molecular Devices fluorescence microplate reader. Measurement was started by addition of increasing concentrations of the taste molecules. […] Calcium signals for each test molecule are depicted as relative fluorescence units (RFU).
as §2

[4] = tested on: BR-HTC38 cells; assay: Fluo-4 fluorescent calcium imaging assay in TAS2R38-transduced BR-HTC38; assay type: cell-based, human; conditions: BR-HTC38 (TAS2R38 expressed) vs BR-HTC8
Method: Changes in Ca^2+-dependent Fluo-4 fluorescence were recorded on a Molecular Devices fluorescence microplate reader. Measurement was started by addition of increasing concentrations of the taste molecules in KH-buffer to the cells. KH-buffer served as negative control and KH-buffer containing 1 μM ionomycin served as a positive control. […] Calcium signals for each test molecule are depicted as Relative Fluorescence Units (RFU), which means that calcium mobilization in response to taste molecules was calculated dF/F0, with dF is (peak fluorescence F1−baseline fluorescence F0). […] Data were obtained from several independent experiments and performed in triplicates.

Nc1ncnc2c1ncn2[C@@H]1O[C@H](COP(=O)(O)OP(=O)(O)OP(=O)(O)O)[C@@H](O)[C@H]1O [ATP, adenosine triphosphate]
change of cellular membrane potential (FLIPR FMP dye fluorescence) on addition of the test molecule [1]: dose-dependent decrease in cellular membrane potential; also recorded: dose-dependent decrease of membrane potential
change of Fluo4-fluorescence / intracellular calcium on addition of the test molecule [2]: increase in intracellular calcium

CC1=CC(=O)[N-]S(=O)(=O)O1.[K+] [Acesulfame K]
change of cellular membrane potential (FLIPR FMP dye fluorescence) on addition of the test molecule [1]: decrease in cellular membrane potential
FMP assay BR-HTC8 [1]: +
change of Fluo4-fluorescence / intracellular calcium on addition of the test molecule [2]: do not trigger an increase in intracellular calcium
Fluo-4 assay BR-HTC8 [2]: +

COc1cccc2c1cc([N+](=O)[O-])c1c(C(=O)O)cc3c(c12)OCO3 [Aristolochic acid]
increase of Fluo4-fluorescence in control cells [3]: not in control cells
change of cellular membrane potential (FLIPR FMP dye fluorescence) on addition of the test molecule [1]: dose-dependent decrease in cellular membrane potential; also recorded: dose-dependent decrease of membrane potential
FMP assay BR-HTC8 [1]: +
change of Fluo4-fluorescence / intracellular calcium on addition of the test molecule [2]: dose-dependent increase of Fluo4-fluorescence
Fluo-4 assay BR-HTC8 [2]: +

O=C(N[C@H](CO)[C@H](O)c1ccc([N+](=O)[O-])cc1)C(Cl)Cl [Chloramphenicole]
Fluo-4 assay BR-HTC8 [2]: +

CCN(CC)CCCC(C)Nc1ccnc2cc(Cl)ccc12 (centres unmarked) [Chloroquine]
FMP assay BR-HTC8 [1]: +

CC[N+](CC)(CC(=O)Nc1c(C)cccc1C)Cc1ccccc1.O=C([O-])c1ccccc1 [Denatonium benzoat]
Fluo-4 assay BR-HTC8 [2]: +

O=C(O[C@@H]1Cc2c(O)cc(O)cc2O[C@@H]1c1cc(O)c(O)c(O)c1)c1cc(O)c(O)c(O)c1 [EGCG]
Fluo-4 assay BR-HTC8 [2]: +

O=S(=O)(NCCNC/C=C/c1ccc(Br)cc1)c1cccc2cnccc12 [H89]
calcium response to saccharin in the presence of H89 ([2]; 0.5 μM H89, BR-HTC8): not reduced
calcium signalling on stimulation with salicin in the presence of H89 ([2]; 0.5 μM H89, BR-HTC8): slightly inhibited

COc1cc(OC2CCN(C(C)=O)CC2)ccc1C(=O)N1CCC(N2C(=O)OCc3ccccc32)CC1 [L371,257]
calcium signalling on stimulation with oxytocin in the presence of L371,257 ([2]; 40 nM L371,257, BR-HTC8): inhibited

CC1COc2c(N3CCN(C)CC3)c(F)cc3c(=O)c(C(=O)O)cn1c23 (centres unmarked) [Ofloxacine]
Fluo-4 assay BR-HTC8 [2]: +

Cc1ccccc1C(OCCN(C)C)c1ccccc1 (centres unmarked) [Orphenadrine]
Fluo-4 assay BR-HTC8 [2]: +

NC(=S)Nc1ccccc1 [PTC, phenylthiocarbamide]
dose-dependent Fluo-4 calcium response in BR-HTC38 compared with parental BR-HTC8 [4]: enhanced
FMP assay BR-HTC8 [1]: +
change of Fluo4-fluorescence / intracellular calcium on addition of the test molecule [2]: dose-dependent increase of Fluo4-fluorescence
Fluo-4 assay BR-HTC8 [2]: +

O=C1NS(=O)(=O)c2ccccc21 [Saccharin]
dose-dependent Fluo-4 calcium response in BR-HTC38 compared with parental BR-HTC8 [4]: enhanced
increase of Fluo4-fluorescence in control cells [3]: not in control cells
change of Fluo4-fluorescence / intracellular calcium on addition of the test molecule [2]: dose-dependent increase of Fluo4-fluorescence
Fluo-4 calcium response in the absence of extracellular Ca2+ ([2]; KH-buffer without Ca2+, BR-HTC8, molecule alone): cannot trigger a Ca^2+ response; also recorded: did not trigger increase of intracellular Ca^2+; also recorded: no response
increase of intracellular calcium in response to salicin when combined with saccharin ([2]; absence of extracellular calcium, increasing salicin with four fixed concentrations of saccharin): strongly enhanced
Fluo-4 assay BR-HTC8 [2]: +

COc1ccc2c(c1)CC[C@@H]1[C@@H]2CC[C@]2(C)[C@@H](NCCCCCCN3C(=O)C=CC3=O)CC[C@@H]12 [U73122]
calcium response to saccharin in the presence of U73122 ([2]; 5 μM U73122, BR-HTC8): not reduced
calcium signalling on stimulation with salicin in the presence of U73122 ([2]; 5 μM U73122, BR-HTC8): inhibited

CCCCC/C=C\C/C=C\CCCCCCCC(=O)O [linoleic acid]
increase of Fluo4-fluorescence in control cells [3]: not in control cells
change of Fluo4-fluorescence / intracellular calcium on addition of the test molecule [2]: dose-dependent increase of Fluo4-fluorescence

CCCCCCCC/C=C\CCCCCCCC(=O)O [oleic acid]
increase of Fluo4-fluorescence in control cells [3]: not in control cells
change of Fluo4-fluorescence / intracellular calcium on addition of the test molecule [2]: dose-dependent increase of Fluo4-fluorescence

CC[C@H](C)[C@@H]1NC(=O)[C@H](Cc2ccc(O)cc2)NC(=O)[C@@H](N)CSSC[C@@H](C(=O)N2CCC[C@H]2C(=O)N[C@@H](CC(C)C)C(=O)NCC(N)=O)NC(=O)[C@H](CC(N)=O)NC(=O)[C@H](CCC(N)=O)NC1=O [oxytocin]
change of cellular membrane potential (FLIPR FMP dye fluorescence) on addition of the test molecule [1]: dose-dependent decrease of membrane potential
change of Fluo4-fluorescence / intracellular calcium on addition of the test molecule [2]: dose-dependent increase of Fluo4-fluorescence
